Experimental data reported in patent US20240277698A1, “METHODS OF USING ALDOSTERONE SYNTHASE INHIBITORS” (CINCOR PHARMA, INC., priority 2021, published 2024).
Read-outs that look alike come from different tables or passages of the source.

Tests used:
[1] = Relative bioavailability of tablet versus oral solution, single 5 mg dose; assay type: in vivo, human; details: for AUC(0-inf) / AUC(0-t) / Cmax: 5 mg
Method: The relative bioavailability of the tablet formulation intended for use in future clinical studies as compared to the oral solution of (R)-compound 1 administered in the SAD and MAD was assessed following a single 5 mg dose of each formulation. Mean (+SD [standard deviation]) plasma concentration-time profiles following administration of the oral solution and tablet formulations are presented in FIG. 9.
Mean (SD) PK parameters of (R)-compound 1 following administration of the oral solution and tablet formulations are presented in Table 12.

aldosterone synthase = target: T1, aldosterone synthase (Homo sapiens, UniProt P19099); test: MAD study: urine aldosterone and tetrahydroaldosterone; assay type: in vivo; details: mean
T1 construct: synthesized in the adrenal cortex by aldosterone synthase; endogenous in cells; host or cells: adrenal cortex of healthy human subjects (in vivo, oral dosing)
T1 sequence (P19099 25-503): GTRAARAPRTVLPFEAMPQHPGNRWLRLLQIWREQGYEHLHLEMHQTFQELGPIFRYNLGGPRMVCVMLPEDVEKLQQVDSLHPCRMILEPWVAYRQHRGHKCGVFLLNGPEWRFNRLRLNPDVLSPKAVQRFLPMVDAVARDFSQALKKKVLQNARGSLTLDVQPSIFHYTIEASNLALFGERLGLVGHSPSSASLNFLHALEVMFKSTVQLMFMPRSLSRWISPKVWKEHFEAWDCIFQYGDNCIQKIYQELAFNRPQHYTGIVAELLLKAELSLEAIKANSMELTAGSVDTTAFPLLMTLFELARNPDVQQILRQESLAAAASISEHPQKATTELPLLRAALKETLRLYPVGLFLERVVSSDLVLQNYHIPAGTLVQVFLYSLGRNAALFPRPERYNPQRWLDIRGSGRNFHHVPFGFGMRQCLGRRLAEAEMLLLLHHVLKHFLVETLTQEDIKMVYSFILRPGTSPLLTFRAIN
Source text: For each subject, the study consisted of: • A screening period of up to 28 days; • A 5-day inpatient run-in period during which subjects adhered to a controlled, standardized diet and underwent baseline PD assessments; • A 15-day inpatient treatment period, during which subjects received (R)-compound 1 or placebo once daily for 10 days while adhering to a controlled, standardized diet, followed by PK and PD sampling over an additional 5 days; and • A follow-up visit 3 days (1 day) after discharge from the clinical unit. • A cortisol stimulation test (Cohorts 1 and 2 only) and standing aldosterone assessment (all cohorts) were performed on Days 1 and 10. Serial blood samples for PK and PD were obtained prior to and at specified time points over 24 hours after dosing on Day 1 as well as prior to and at specified time points over 120 hours after dosing on Day 10. In addition, blood samples for PK were collected prior to dosing on Days 8 and 9. Urine for PK and PD measurements was collected over 24 hours starting just prior to dosing on Day 1 as well as over 120 hours starting just prior to dosing on Day 10.
Urine PD measures included concentrations of • Aldosterone; • Cortisol (free and total); and • Tetrahydroaldosterone.
For analysis, the urine PD concentrations were converted to total analyte amounts: Total amount (unit)=concentration (unit/volume) • urine volume

CCC(=O)N[C@@H]1CCCc2c(-c3ccc4c(c3)CCC(=O)N4C)cncc21 [(R)-Compound 1, (R)—N-(4-(1-methyl-2-oxo-1,2,3,4-tetrahydroquinolin-6-yl)-5,6,7,8-tetrahydroisoquinolin-8-yl)propionamide]
AUC(0-inf) ([1]; human, plasma, oral, tablet, read-out: AUC0-inf, GM (Geo. CV %)): 1670 ng·h/mL | AUC(0-inf) ([1]; human, plasma, oral, tablet, read-out: AUC0-inf, Geo. LS Mean): 1720 ng·h/mL | AUC(0-inf) ([1]; human, plasma, oral, tablet, read-out: AUC0-inf, Mean): 1720 ng·h/mL | AUC(0-t) ([1]; human, plasma, oral, tablet, read-out: AUC0-t, GM (Geo. CV %)): 1580 ng·h/mL | AUC(0-t) ([1]; human, plasma, oral, tablet, read-out: AUC0-t, Geo. LS Mean): 1620 ng·h/mL | AUC(0-t) ([1]; human, plasma, oral, tablet, read-out: AUC0-t, Mean): 1620 ng·h/mL | Cmax ([1]; human, plasma, oral, tablet, read-out: Cmax, GM (Geo. CV %)): 52.3 ng/mL | Cmax ([1]; human, plasma, oral, tablet, read-out: Cmax, Geo. LS Mean): 52.8 ng/mL | Cmax ([1]; human, plasma, oral, tablet, read-out: Cmax, Mean (SD)): 53.1 ng/mL | Tmax ([1]; human, plasma, oral, tablet, read-out: Tmax, Median (min, max)): 3 h | AUC(0-inf) ([1]; human, plasma, po, oral solution, read-out: AUC0-inf, GM (Geo. CV %)): 1710 ng·h/mL | AUC(0-inf) ([1]; human, plasma, po, oral solution, read-out: AUC0-inf, Geo. LS Mean): 1680 ng·h/mL | AUC(0-inf) ([1]; human, plasma, po, oral solution, read-out: AUC0-inf, Mean): 1750 ng·h/mL | AUC(0-t) ([1]; human, plasma, po, oral solution, read-out: AUC0-t, GM (Geo. CV %)): 1610 ng·h/mL | AUC(0-t) ([1]; human, plasma, po, oral solution, read-out: AUC0-t, Geo. LS Mean): 1580 ng·h/mL | AUC(0-t) ([1]; human, plasma, po, oral solution, read-out: AUC0-t, Mean): 1650 ng·h/mL | Cmax ([1]; human, plasma, po, oral solution, read-out: Cmax, GM (Geo. CV %)): 52.7 ng/mL | Cmax ([1]; human, plasma, po, oral solution, read-out: Cmax, Geo. LS Mean): 52.1 ng/mL | AUCextrapolated, GM (Geo. CV %) ([1]; oral solution): 5.018 (56.4) % | AUCextrapolated, Mean (SD) ([1]; oral solution): 5.565 (2.2131) % | Cmax, Mean (SD) ([1]; oral solution): 53.886 (11.6813) ng/mL | Tmax, Median (min, max) ([1]; oral solution): 2.500 (1.00, 3.50) h | AUCextrapolated, GM (Geo. CV %) ([1]; tablet): 4.995 (59.7) % | AUCextrapolated, Mean (SD) ([1]; tablet): 5.600 (2.3669) % | AUC0-inf, Ratio of Geo. LS Means (tablet/solution) ([1]; tablet versus oral solution): 102.2% | AUC0-t, Ratio of Geo. LS Means (tablet/solution) ([1]; tablet versus oral solution): 102.2% | Cmax, Ratio of Geo. LS Means (tablet/solution) ([1]; tablet versus oral solution): 101.2% | Urine aldosterone (ng), Percent change from baseline (Day −1) to Day 1 0-24 hr (aldosterone synthase; 0.5 mg QD, normal salt diet): −23.7290% | Urine aldosterone (ng), Percent change from baseline (Day −1) to Day 10 0-24 hr (aldosterone synthase; 0.5 mg QD, normal salt diet): 4.2728% | Urine tetrahydroaldosterone (ng), Percent change from baseline (Day −1) to Day 1 0-24 hr (aldosterone synthase; 0.5 mg QD, normal salt diet): −12.0171% | Urine tetrahydroaldosterone (ng), Percent change from baseline (Day −1) to Day 10 0-24 hr (aldosterone synthase; 0.5 mg QD, normal salt diet): 11.0511% | Urine aldosterone (ng), Percent change from baseline (Day −1) to Day 1 0-24 hr (aldosterone synthase; 1.5 mg QD, normal salt diet): −67.6229% | Urine aldosterone (ng), Percent change from baseline (Day −1) to Day 10 0-24 hr (aldosterone synthase; 1.5 mg QD, normal salt diet): −65.6831% | Urine tetrahydroaldosterone (ng), Percent change from baseline (Day −1) to Day 1 0-24 hr (aldosterone synthase; 1.5 mg QD, normal salt diet): −47.0556% | Urine tetrahydroaldosterone (ng), Percent change from baseline (Day −1) to Day 10 0-24 hr (aldosterone synthase; 1.5 mg QD, normal salt diet): −60.9034% | Urine aldosterone (ng), Percent change from baseline (Day −1) to Day 1 0-24 hr (aldosterone synthase; 2.5 mg QD, low salt diet): −61.1877% | Urine aldosterone (ng), Percent change from baseline (Day −1) to Day 10 0-24 hr (aldosterone synthase; 2.5 mg QD, low salt diet): −19.3985% | Urine tetrahydroaldosterone (ng), Percent change from baseline (Day −1) to Day 1 0-24 hr (aldosterone synthase; 2.5 mg QD, low salt diet): −26.0540% | Urine tetrahydroaldosterone (ng), Percent change from baseline (Day −1) to Day 10 0-24 hr (aldosterone synthase; 2.5 mg QD, low salt diet): −6.2967% | Urine aldosterone (ng), Percent change from baseline (Day −1) to Day 1 0-24 hr (aldosterone synthase; 2.5 mg QD, normal salt diet): −71.7141% | Urine aldosterone (ng), Percent change from baseline (Day −1) to Day 10 0-24 hr (aldosterone synthase; 2.5 mg QD, normal salt diet): −50.7592% | Urine tetrahydroaldosterone (ng), Percent change from baseline (Day −1) to Day 1 0-24 hr (aldosterone synthase; 2.5 mg QD, normal salt diet): −59.6517% | Urine tetrahydroaldosterone (ng), Percent change from baseline (Day −1) to Day 10 0-24 hr (aldosterone synthase; 2.5 mg QD, normal salt diet): −55.1771% | Urine aldosterone (ng), Percent change from baseline (Day −1) to Day 1 0-24 hr (aldosterone synthase; 5.0 mg QD, low salt diet): −83.5768% | Urine tetrahydroaldosterone (ng), Percent change from baseline (Day −1) to Day 1 0-24 hr (aldosterone synthase; 5.0 mg QD, low salt diet): −67.5905% | Urine tetrahydroaldosterone (ng), Percent change from baseline (Day −1) to Day 10 0-24 hr (aldosterone synthase; 5.0 mg QD, low salt diet): −64.5164%
